Results: publication PMC7144022, “Quinolinecarboxamides Inhibit the Replication of the Bovine Viral Diarrhea Virus by Targeting a Hot Spot for the Inhibition of Pestivirus Replication in the RNA-Dependent RNA Polymerase” (Molecules, 2020)

Tests used:
[1] = Cytotoxicity assay, proliferation of exponentially growing MDBK cells (MTS/PMS); format: cell-based, bovine; conditions: bovine
Protocol: Assays were carried out, as described previously.

BVDV NADL virus = test: CPE-based antiviral assay, BVDV NADL in MDBK cells (MTS/PMS); conditions: for EC50: Bovine viral diarrhea virus isolates and strains, MDBK, 72 h; for S.I.: selectivity index, CC50 vs EC50
[2] = sheet CSFCII#, potency relative to TO502-2403 (EC50 0.2 µM)
[3] = sheet CSFCI#, potency relative to TO505-6180 (EC50 0.07 µM)

SMILES	CC50 at 5 days [1] [µM]	EC50 (BVDV NADL virus) [µM]	S.I. (BVDV NADL virus)	fold increase (BVDV NADL virus; [2])	fold increase (BVDV NADL virus; [3])
Cc1cccc2sc(NC(=O)c3cc(-c4cccs4)nc4c(Cl)cccc34)nc12 [CSFC-98, Clc5cccc1c5nc(cc1C(=O)Nc2nc3c(C)cccc3s2)c4cccs4]	> 100	0.2	500	1.00	–
O=C(Nc1ccn(-c2cccc(F)c2)n1)c1cc(-c2ccccc2)nc2ccccc12 [CSFC-126, Fc1cccc(c1)n2ccc(n2)NC(=O)c4cc(nc3ccccc34)c5ccccc5]	> 100	0.6	167	0.33	–
O=C(Nc1nc2c(Cl)cccc2s1)c1cc(-c2ccccc2)nc2ccccc12 [CSFC-15, Clc1cccc2sc(nc21)NC(=O)c1cc(nc2ccccc21)c1ccccc1]	> 100	0.8	125	–	0.09
COc1ccc(NC(=O)c2cc(-c3ccccc3)nc3ccccc23)cc1 [CSFC-139, COc1ccc(cc1)NC(=O)c1cc(nc2ccccc12)c1ccccc1]	> 100	> 100	1	–	0.0007
Cc1ccc(-c2csc(NC(=O)c3cc(-c4ccccc4)nc4ccccc34)n2)cc1 [CSFC-114, O=C(Nc1nc(cs1)c2ccc(C)cc2)c4cc(nc3ccccc34)c5ccccc5]	> 100	1.1	91	0.18	–
COc1cccc(NC(=O)c2cc(-c3ccccc3)nc3ccccc23)c1 [CSFC-138, COc1cccc(c1)NC(=O)c1cc(nc2ccccc12)c1ccccc1]	> 100	> 100	1	–	0.0007
O=C(Nc1ccccn1)c1cc(-c2ccccc2)nc2ccccc12 [CSFC-6, O=C(Nc1ccccn1)c1cc(nc2ccccc21)c1ccccc1]	> 100	> 100	1	–	0.0007
Cc1ccc2nc(NC(=O)c3cc(-c4ccccc4F)nc4ccccc34)sc2c1 [CSFC-61, Fc1ccccc1c3nc2ccccc2c(c3)C(=O)Nc4nc5ccc(C)cc5s4]	> 100	0.2	500	1.00	–
O=C(Nc1nc2ccccc2s1)c1cc(-c2ccccc2)nc2ccccc12 [CSFC-13, O=C(Nc1nc2ccccc2s1)c1cc(nc2ccccc21)c1ccccc1]	> 100	1.2	–	–	0.06
Cc1cccc2sc(NC(=O)c3cc(-c4cccs4)nc4ccccc34)nc12 [CSFC-46, Cc1cccc2sc(nc12)NC(=O)c4cc(nc3ccccc34)c5cccs5]	> 100	0.2	500	1.00	–
COc1ccc(-c2cc(C(=O)Nc3nc4c(C)cccc4s3)c3ccccc3n2)cc1 [CSFC-117, COc1ccc(cc1)c3nc2ccccc2c(c3)C(=O)Nc4nc5c(C)cccc5s4]	> 100	1.7	59	0.12	–
CC(C)(C)c1cc(NC(=O)c2cc(-c3ccccc3)nc3ccccc23)no1 [CSFC-32, O=C(Nc1cc(on1)C(C)(C)C)c3cc(nc2ccccc23)c4ccccc4]	> 100	7.2	14	0.0278	–
Cc1ccc2nc(NC(=O)c3ccnc4ccccc34)sc2c1 [CSFC-17, Cc1ccc2nc(sc2c1)NC(=O)c4ccnc3ccccc34]	> 100	100	1	0.002	–
Cc1ccc(-c2cc(C(=O)Nc3nc4c(C)cccc4s3)c3ccccc3n2)o1 [CSFC-49, Cc1ccc(o1)c3nc2ccccc2c(c3)C(=O)Nc4nc5c(C)cccc5s4]	> 100	0.7	143	0.29	–
Cc1ccc2nc(NC(=O)c3nccn3C)sc2c1 [CSFC-33, Cn1ccnc1C(=O)Nc1nc2ccc(C)cc2s1]	> 100	46	2	–	0.00152
O=C(Nc1ccn(-c2ccc(Cl)cc2)n1)c1cc(-c2ccco2)nc2c(F)cccc12 [CSFC-104, Clc1ccc(cc1)n2ccc(n2)NC(=O)c4cc(nc3c(F)cccc34)c5ccco5]	> 100	0.2	500	1.00	–
COc1ccc2nc(NC(=O)c3cc(-c4ccco4)nc4ccccc34)sc2c1 [CSFC-38, COc1ccc2nc(NC(=O)c3cc(nc4ccccc43)c3ccco3)sc2c1]	> 100	0.09	1111	–	0.78
O=C(Nc1cc(-c2ccc(Br)cc2)on1)c1cc(-c2ccccc2)nc2ccccc12 [CSFC-43, O=C(Nc1cc(on1)c2ccc(Br)cc2)c4cc(nc3ccccc34)c5ccccc5]	> 100	4	26	0.05	–
O=C(Nc1ccccc1)c1cc(-c2ccccc2)nc2ccccc12 [CSFC-134, O=C(Nc1ccccc1)c1cc(nc2ccccc12)c1ccccc1]	> 100	> 100	1	–	0.0007

SMILES	CC50 at 5 days [1] [µM]	EC50 (BVDV NADL virus) [µM]	S.I. (BVDV NADL virus)	fold increase (BVDV NADL virus; [2])	fold increase (BVDV NADL virus; [3])
Cc1cccc2sc(NC(=O)c3cc(-c4cccc(F)c4)nc4ccccc34)nc12 [CSFC-62, Fc1cccc(c1)c3nc2ccccc2c(c3)C(=O)Nc4nc5c(C)cccc5s4]	25 ± 5	25	1	0.008	–
O=C(Nc1ccn(-c2ccc(F)cc2)n1)c1cc(-c2cccnc2)nc2ccccc12 [CSFC-129, Fc1ccc(cc1)n2ccc(n2)NC(=O)c4cc(nc3ccccc34)c5cccnc5]	68	1.4	49	0.14	–
Cc1noc(C)c1NC(=O)c1cc(-c2ccco2)nc2ccccc12 [CSFC-37, O=C(Nc1c(C)onc1C)c3cc(nc2ccccc23)c4ccco4]	> 100	34.2	3	0.00585	–
O=C(Nc1ccn(-c2cccc(F)c2)n1)c1cc(-c2cccnc2)nc2ccccc12 [CSFC-127, Fc1cccc(c1)n2ccc(n2)NC(=O)c4cc(nc3ccccc34)c5cccnc5]	> 100	100	–	0.002	–
COc1ccc2nc(NC(=O)c3cc(-c4ccco4)nc4c(F)cccc34)sc2c1 [CSFC-83, Fc5cccc1c5nc(cc1C(=O)Nc2nc3ccc(cc3s2)OC)c4ccco4]	> 100	0.07	1429	2.86	–
CCOc1ccc2nc(NC(=O)c3cc(-c4ccco4)nc4ccccc34)sc2c1 [CSFC-57, CCOc1ccc2nc(sc2c1)NC(=O)c4cc(nc3ccccc34)c5ccco5]	> 100	0.5	200	0.40	–
Cc1cccc2sc(NC(=O)c3cc(-c4ccco4)nc4c(F)cccc34)nc12 [CSFC-80, Fc5cccc1c5nc(cc1C(=O)Nc2nc3c(C)cccc3s2)c4ccco4]	> 100	0.9	111	0.22	–
Cc1cccc2sc(NC(=O)c3cc(-c4ccncc4)nc4ccccc34)nc12 [CSFC-115, Cc1cccc2sc(nc12)NC(=O)c4cc(nc3ccccc34)c5ccncc5]	> 100	0.2	500	1.00	–
Cc1cccc2sc(NC(=O)c3cc(-c4ccccc4)nc4ccccc34)nc12 [CSFC-1, Cc1cccc2sc(nc12)NC(=O)c1cc(nc2ccccc21)c1ccccc1]	> 100	0.3	333	–	0.23
COc1ccc(-c2cc(C(=O)Nc3ccn(-c4ccccc4)n3)c3ccccc3n2)cc1 [CSFC-118, COc1ccc(cc1)c3nc2ccccc2c(c3)C(=O)Nc4ccn(n4)c5ccccc5]	> 100	0.3	333	0.67	–
Cc1ccc2nc(NC(=O)c3cc(O)nc4ccccc34)sc2c1 [CSFC-31, Oc1nc2ccccc2c(c1)C(=O)Nc1nc2ccc(C)cc2s1]	> 100	> 100	1	–	0.0007
COc1cccc2sc(NC(=O)c3cc(-c4ccccc4)nc4ccccc34)nc12 [CSFC-19, COc1cccc2sc(nc12)NC(=O)c1cc(nc2ccccc21)c1ccccc1]	> 100	0.4	250	–	0.18
COc1ccc2nc(NC(=O)c3cc(-c4ccco4)nc4ccc(OC(F)(F)F)cc34)sc2c1 [CSFC-77, FC(F)(F)Oc1cc2c(cc1)nc(cc2C(=O)Nc3nc4ccc(cc4s3)OC)c5ccco5]	> 100	100	1	0.002	–
COc1ccc2nc(NC(=O)c3cc(-c4ccco4)nc4ccc(C)cc34)sc2c1 [CSFC-73, O=C(c2cc(nc1ccc(cc12)C)c3ccco3)Nc4nc5ccc(cc5s4)OC]	> 100	11.5	9	0.0174	–
O=C(Nc1ccn(-c2ccccc2)n1)c1cc(-c2cccc(F)c2)nc2ccccc12 [CSFC-69, Fc1cccc(c1)c3nc2ccccc2c(c3)C(=O)Nc4ccn(n4)c5ccccc5]	> 100	0.1	1000	2.00	–
Cc1cc(C)c2nc(-c3ccco3)cc(C(=O)Nc3nc4c(C)cccc4s3)c2c1 [CSFC-75, Cc5cc1c(nc(cc1C(=O)Nc2nc3c(C)cccc3s2)c4ccco4)c(C)c5]	> 100	5.3	19	0.0377	–
Cc1cc2nc(NC(=O)c3cc(-c4ccccc4)nc4ccccc34)sc2cc1C [CSFC-11, Cc1cc2nc(NC(=O)c3cc(nc4ccccc43)c3ccccc3)sc2cc1C]	> 100	0.3	333	–	0.23
Cn1c(NC(=O)c2cc(-c3ccccc3)nc3ccccc23)nc2ccccc21 [CSFC-4, O=C(Nc1nc2ccccc2n1C)c1cc(nc2ccccc21)c1ccccc1]	> 100	> 100	1	–	0.0007
